These results are taken from patent US20060211687A1, “Potassium salt of an hiv integrase inhibitor” (priority 2003, published 2006).

A short description of series [1]: hygroscopicity. The class given is physicochemical. Particulars: compared with the sodium salt of Compound A.
A short description of series [2]: oral bioavailability and pharmacokinetics in rats. The class given is in vivo. Particulars: relative to amorphous and crystalline Compound A.
Series [3] is described as follows: solubility in water. The class given is physicochemical. Particulars: compared to the free base.
Series [4] in a line: stability of the salt. It counts as physicochemical. Particulars: compared with the sodium salt of Compound A.
Series [5] can be described thus: oral bioavailability and pharmacokinetics in dogs. It counts as in vivo. Particulars: relative to amorphous and crystalline Compound A.
The nature of series [6]: pharmacokinetics in animal models. It counts as in vivo. Particulars: over the free base.
Series [7] can be described thus: solubility in ethanol containing water. It counts as physicochemical. Particulars: ethanol containing 1 to 5 vol. % and 10 vol% water. The procedure:
Experiments have been conducted in which the Compound A K salt ethanolate of the present invention was slurried in ethanol containing 1, 2, 3, 4, 5 and 10 vol. % water, followed by measurement of the XRPD patterns of the collected crystals. In addition, the solubility of the Compound A K salt ethanolate was also determined for the 1 to 5 vol. % and 10 vol% water in ethanol solutions. […] Accordingly, it is believed that the crystalline ethanolate hydrate material of the present invention exists as a water-ethanol isomorphic co-solvate. […] In accordance with these experimental results, the crystalline potassium salt ethanolate of Compound A of the invention can contain water as a co-solvate up to a maximum water content, beyond which the crystalline salt (as shown by the XRPD and solubility results described above) changes to another form.

Series [8] deals with HIV infection of T-lymphoid cells. The experiment in a line: inhibition of acute HIV infection of T-lymphoid cells. The class given is cell-based. As to conditions: in accordance with Vacca et al.
For series [9], the target named is T1, HIV integrase (Human immunodeficiency virus type 1 group M subtype B, UniProt P04585).
T1 construct: strand transfer is catalyzed by recombinant integrase
The series can be described thus: integrase inhibition assay in which strand transfer is catalyzed by recombinant integrase. The class given is biochemical. Particulars: assay of Example 193 of WO 02/30930. An excerpt:
Compound A is an inhibitor of HIV integrase. […] The strand transfer assay is described in Example 193 of WO 02/30930.

[10] abbreviates: listed as crystalline potassium salt of Compound A.

Take `CNC(=O)c1cc(F)ccc1CNC(=O)c1nc(N2CCCCS2(=O)=O)c2cccnc2c1[O-].[K+]` [potassium salt of Compound A, Potassium 5-(1,1-dioxido-1,2-thiazinan-2-yl)-7-[({4-fluoro-2-[(methylamino)-carbonyl]benzyl}amino)carbonyl]-1,6-naphthyridin-8-olate]: the hygroscopicity entry is on record as “significantly less hygroscopic” in series [1] and “less” in series [1] (setting [10]). Besides, the AUC result in series [2] and in series [5] was “improved” in each case. The Cmax entry in [2] and in [5] was “improved” throughout. Further, the oral bioavailability result in series [2] and in series [5] was “superior” throughout. Also, the solubility in water result in [3] is given as “significantly more soluble”. The stability entry in series [4] is on record as “more stable”; in series [4] (setting [10]), “improved”. Moreover, in series [6], the pharmacokinetics result is listed as “improved”.

For the molecule `CNC(=O)c1cc(F)ccc1CNC(=O)c1nc(N2CCCCS2(=O)=O)c2cccnc2c1[O-].[K+]` [Salt A1, Potassium 5-(1,1-dioxido-1,2-thiazinan-2-yl)-7-[({4-fluoro-2-[(methylamino)carbonyl]benzyl}amino)carbonyl]-1,6-naphthyridin-8-olate], in series [7], the solubility trend entry is reported as “increasing solubility from 1 to 5 vol % reversed to lower solubility at 10 vol. %”.

For `CNC(=O)c1cc(F)ccc1CNC(=O)c1nc(N2CCCCS2(=O)=O)c2cccnc2c1O` [Compound A, 5-(1,1-dioxido-1,2-thiazinan-2-yl)-N-{4-fluoro-2-[(methylamino)carbonyl]benzyl}-8-hydroxy-1,6-naphthyridine-7-carboxamide], in series [8], the “inhibition of acute HIV infection of T-lymphoid cells” value is “active”. The “inhibition of HIV integrase (strand transfer)” value in series [9] was “potent inhibitor”.
